The text below walks through data of US20120196853A1, “Novel Quinoline-Hepcidine Antagonists” (VIFOR (INTERNATIONAL) AG, priority 2009, published 2012).

A value given as a limit tells only on which side of the number the result lay.

The target of one test is T1, human ferroportin (Fpn-HaloTag fusion protein) (Homo sapiens, UniProt Q9NP59).
T1 construct: expressed in transfected cells
T1 sequence (Q9NP59 1-571): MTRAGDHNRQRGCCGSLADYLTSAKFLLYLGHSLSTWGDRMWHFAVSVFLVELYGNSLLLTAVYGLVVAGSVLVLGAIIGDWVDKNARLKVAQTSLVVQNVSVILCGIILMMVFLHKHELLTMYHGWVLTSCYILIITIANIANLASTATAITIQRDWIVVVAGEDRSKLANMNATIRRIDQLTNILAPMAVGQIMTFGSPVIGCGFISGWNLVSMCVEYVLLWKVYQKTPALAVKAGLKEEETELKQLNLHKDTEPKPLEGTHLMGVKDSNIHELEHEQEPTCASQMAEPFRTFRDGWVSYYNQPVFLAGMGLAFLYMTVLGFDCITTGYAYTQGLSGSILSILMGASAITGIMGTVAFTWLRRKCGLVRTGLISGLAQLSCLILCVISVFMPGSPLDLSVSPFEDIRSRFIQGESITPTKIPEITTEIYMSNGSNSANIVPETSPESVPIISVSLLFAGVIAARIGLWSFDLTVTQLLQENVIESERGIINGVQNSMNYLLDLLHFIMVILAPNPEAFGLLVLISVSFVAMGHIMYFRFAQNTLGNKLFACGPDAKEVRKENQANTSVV
The test can be described thus: ferroportin internalization assay (inhibition of hepcidin-induced internalization of Fpn, MDCK-FPN-HaloTag cells). In kind it is cell-based. To be noted: 100 nM hepcidin, overnight, dilution series 0.04 to 40 μM. The protocol:
The hepcidin-antagonistic action of the quinoline compounds of the present invention was determined by means of the “ferroportin internalization assay” described in the following.
Organic compounds of low molecular weight which counteract the biological actions of hepcidin on its receptor, the iron exporter ferroportin (Fpn), were identified on the basis of their ability to inhibit hepcidin-induced internalization of Fpn in living cells. For this purpose, a stable cell line (Madin-Darby canine kidney, MDCK) was produced which constitutively expresses human ferroportin fused recombinantly at its C terminus with a fluorescent reporter protein (HaloTag®, Promega Corp.). The internalization of Fpn was monitored by labelling these cells with fluorescent ligands (HaloTag®-TMR, tetramethylrhodamine) which join covalently on to the HaloTag reporter gene fused with the Fpn. […] Optimized image analysis algorithms were used to ascertain the cell surface and to quantify the corresponding membrane fluorescence associated with the Fpn-HaloTag fusion protein. This assay allows a quantitative image-based analysis in order to quickly evaluate compounds which can block hepcidin-induced internalization of Fpn. This assay is a direct in vitro pendant of the in vivo action mechanism proposed for medicament candidates and is therefore suitable as an initial assay with a high throughput for identifying compounds which counteract the action of hepcidin on its receptor ferroportin.
• 7,500 cells per well (MDCK-FPN-HaloTag) were transinoculated in 50 μl DMEM medium (Dulbeccos modified Eagle medium with 10% foetal bovine serum (FBS), which contained 1% penicillin, 1% streptomycin and 450 μg/ml of G-418) in microtitre plates with 384 wells, (384 Cell carrier plates, Perkin Elmer, cat. no. 6007430), followed by incubation overnight at 37° C./5% CO2. • The volume of the medium was reduced to 10 μl, and 10 μl of 5 μM HaloTag-TMR ligands (Promega, cat. no. G 8251) were added in DMEM medium in order to stain the Fpn-HaloTag fusion protein. • 15 min incubation at 37° C./5% CO2 • The HaloTag-TMR ligand was removed and the cells were washed with fresh DMEM medium and the volume was reduced to 20 μl of DMEM medium. • 3 μl per well of a solution of the test compound (dissolved DMSO) were added ([…]). • 7 μl of […] hepcidin (Peptides International, cat. no. PLP-4392-s, 100 μM stock solution diluted in water in DMEM medium) were added per well up to a final hepcidin concentration of 100 nM. • The cells were incubated overnight at 37° C./5% CO2. • The cells were fixed by adding paraformaldehyde (PFA, Electron Microscopy Sciences, cat. no. 15710-S) directly to the cells up to a final concentration of 4%, followed by incubation at room temperature for 15-20 minutes. • The PFA solution was removed and the cells were washed with PBS (phosphate-buffered saline solution), in each case 30 μl remaining in the plate. • 20 μl of Draq5 (Biostatus, cat. no. DR 51000) were added up to a final concentration of 2.5 μM in order to stain the cell nuclei, and the plates were sealed with a foil plate seal. • The plates were analysed with the Opera Plate Imager (Opera Confocal Plate Imager, Perkin Elmer) with 7 images per well; 440 ms exposure time per image, […] focal point height.
`NC(=O)c1ccc(C(c2ccc3cccnc3c2O)N2CCOCC2)cc1` (stereo not drawn) [Example 24, 4-[(8-Hydroxy-quinolin-7-yl)-morpholin-4-yl-methyl]-benzamide] registered an IC50 of under 50 µM.
In turn, `CC1CN(C(c2ccccn2)c2cc(Cl)c3cccnc3c2O)CC(C)O1` (stereo not drawn) [Example 33] gave an IC50 of under 50 µM.
In the case of `Oc1c(C(c2ccccn2)N2CCCCC2)ccc2cccnc12` (stereo not drawn) [Example 27, 7-(Piperidin-1-yl-pyridin-2-yl-methyl)-quinolin-8-ol], the IC50 is under 50 µM.
The same measure, in the same setting: under `Oc1c(C(Nc2ccccn2)c2cccnc2)cc(Cl)c2cccnc12` (stereo not drawn) [Example 6, 5-Chloro-7-[pyridin-3-yl-(pyridin-2-ylamino)-methyl]-quinolin-8-ol] stands under 50 µM; under `Oc1c(C(c2ccccc2Cl)N2CCOCC2)ccc2cccnc12` (stereo not drawn) [Example 13, 7-[(2-Chloro-phenyl)-morpholin-4-yl-methyl]-quinolin-8-ol], under 50 µM.
The same measure, in the same setting: under `Oc1c(CN2CCOCC2)cc(CN2CCOCC2)c2cccnc12` [Example 38, 5,7-Bis-morpholin-4-ylmethyl-quinolin-8-ol] stands over 100 µM; under `Oc1c(C(c2ccc(Cl)cc2)N2CCOCC2)ccc2cccnc12` (stereo not drawn) [Example 40, 7-[(4-Chloro-phenyl)-morpholin-4-yl-methyl]-quinolin-8-ol], under 50 µM; under `CN(Cc1ccccc1)C(c1ccncc1)c1ccc2cccnc2c1O` (stereo not drawn) [Example 19, 7-[(Benzyl-methyl-amino)-pyridin-4-yl-methyl]-quinolin-8-ol], under 50 µM.
The same measure, in the same setting: the result for `Oc1c(C(c2ccc(F)cc2)N2CCOCC2)ccc2cccnc12` (stereo not drawn) [Example 28] reads under 50 µM.
The compound `OCCN1CCN(C(c2ccccn2)c2ccc3cccnc3c2O)CC1` (stereo not drawn) [Example 8] displayed an IC50 of under 50 µM.
In turn, `COc1cc(COc2c(CN3CCOCC3)ccc3cccnc23)cc(OC)c1OC` [Example 23, 7-Morpholin-4-ylmethyl-8-(3,4,5-trimethoxybenzyloxy)-quinoline] had an IC50 of over 100 µM.
Same read-out and setting: under `Oc1c(C(c2ccccn2)N2CCOCC2)ccc2cccnc12` (stereo not drawn) [Example 1, 7-(Morpholin-4-yl-pyridin-2-yl-methyl)-quinolin-8-ol] stands under 50 µM.
The same measure, in the same setting: the result for `Oc1c(C(c2ccccn2)N2CCCCC2)cc(Cl)c2cccnc12` (stereo not drawn) [Example 32, 5-Chloro-7-(piperidin-1-yl-pyridin-2-yl-methyl)-quinolin-8-ol] reads under 50 µM; that for `Oc1c(C(c2ccccn2)N2CCN(Cc3ccccc3)CC2)ccc2cccnc12` (stereo not drawn) [Example 34, 7-[(4-Benzyl-piperazin-1-yl)-pyridin-2-yl-methyl]quinolin-8-ol], under 50 µM; that for `O=C(Oc1c(CN2CCOCC2)cc(Cl)c2cccnc12)c1ccco1` [Example 3, Furan-2-carboxylic acid 5-chloro-7-morpholin-4-ylmethyl-quinolin-8-yl ester], under 50 µM.
Compound `N#Cc1ccc(C(c2ccc3cccnc3c2O)N2CCOCC2)cc1` (stereo not drawn) [Example 10, 4-[(8-Hydroxy-quinolin-7-yl)-morpholin-4-yl-methyl]-benzonitrile] gave an IC50 of under 50 µM.
Still for that read-out and setting: under `Oc1c(C(c2cccs2)N2CCOCC2)cc(Cl)c2cccnc12` (stereo not drawn) [Example 39, 5-Chloro-7-(morpholin-4-yl-thiophen-2-yl-methyl)-quinolin-8-ol] stands under 50 µM; under `COc1cc(C(=O)Oc2c(CN3CCOCC3)cc(Cl)c3cccnc23)cc(OC)c1OC` [Example 4, 3,4,5-Trimethoxy-benzoic acid 5-chloro-7-morpholin-4-ylmethyl-quinolin-8-yl ester], under 50 µM.
Turning to `CC1CN(C(c2ccncc2)c2ccc3cccnc3c2O)CC(C)O1` (stereo not drawn) [Example 18, 7-[(2,6-Dimethyl-morpholin-4-yl)-pyridin-4-yl-methyl]-quinolin-8-ol], the IC50 is under 50 µM.
`Oc1c(CN2CCOCC2)cc(Cl)c2cccnc12` [Example 31, 5-Chloro-7-morpholin-4-ylmethyl-quinolin-8-ol] came in with an IC50 of under 50 µM.
The same measure, in the same setting: the result for `COc1ccc(C(c2ccc3cccnc3c2O)N2CCOCC2)cn1` (stereo not drawn) [Example 11, 7-[(6-Methoxy-pyridin-3-yl)-morpholin-4-yl-methyl]-quinolin-8-ol] reads under 50 µM.
Same read-out and setting: the result for `Oc1c(C(c2cccs2)N2CCOCC2)ccc2cccnc12` (stereo not drawn) [Example 21, 7-(Morpholin-4-yl-thiophen-2-yl-methyl)-quinolin-8-ol] reads under 50 µM; that for `Oc1c(C(c2ccccn2)N2CCOCC2)cc(Cl)c2cccnc12` (stereo not drawn) [Example 25, 5-Chloro-7-(morpholin-4-yl-pyridin-2-yl-methyl)-quinolin-8-ol], under 50 µM.
The same measure, in the same setting: under `Oc1c(C(NCc2ccccc2)c2ccncc2)ccc2cccnc12` (stereo not drawn) [Example 17, 7-(Benzylamino-pyridin-4-yl-methyl)-quinolin-8-ol] stands under 50 µM; under `COc1ccccc1C(c1ccc2cccnc2c1O)N1CCOCC1` (stereo not drawn) [Example 14, 7-[(2-Methoxy-phenyl)-morpholin-4-yl-methyl]-quinolin-8-ol], under 50 µM.
Regarding `Oc1c(C(c2nccn2Cc2ccccc2)N2CCOCC2)ccc2cccnc12` (stereo not drawn) [Example 16], the IC50 was under 50 µM.
Same read-out and setting: under `O=C(Oc1c(CN2CCOCC2)cc(Cl)c2cccnc12)c1ccccc1` [Example 5, Benzoic acid 5-chloro-7-morpholin-4-ylmethyl-quinolin-8-yl ester] stands under 50 µM.
Consider `Oc1c(C(c2cnccn2)N2CCOCC2)ccc2cccnc12` (stereo not drawn) [Example 15, 7-(Morpholin-4-yl-pyrazin-2-yl-methyl)-quinolin-8-ol], for which the IC50 is under 50 µM.
The compound `CN1CCN(C(c2ccccn2)c2ccc3cccnc3c2O)CC1` (stereo not drawn) [Example 35, 7-[(4-Methyl-piperazin-1-yl)-pyridin-2-yl-methyl]-quinolin-8-ol] showed an IC50 of under 50 µM.
In the case of `Oc1c(C(c2ccncc2)N2CCOCC2)ccc2cccnc12` (stereo not drawn) [Example 30, 7-(Morpholin-4-yl-pyridin-4-yl-methyl)-quinolin-8-ol], the IC50 was under 50 µM.
Still for that read-out and setting: under `CCOC(=O)N1CCN(C(c2ccccn2)c2ccc3cccnc3c2O)CC1` (stereo not drawn) [Example 26, 4-[(8-Hydroxy-quinolin-7-yl)-pyridin-2-yl-methyl]-piperazine-1-carboxylic acid ethyl ester] stands under 50 µM.
On to `COc1ccc(C(c2ccc3cccnc3c2O)N2CCOCC2)cc1` (stereo not drawn) [Example 41, 7-[(4-Methoxy-phenyl)-morpholin-4-yl-methyl]-quinolin-8-ol], for which the IC50 was under 50 µM.
The same measure, in the same setting: the result for `Oc1c(CN2CCOCC2)ccc2cccnc12` [Example 22, 7-Morpholin-4-yl-methyl-quinolin-8-ol] reads under 50 µM; that for `Oc1c(C(c2ccccn2)N2CCN(c3ccccn3)CC2)ccc2cccnc12` (stereo not drawn) [Example 37, 7-[Pyridin-2-yl-(4-pyridin-2-yl-piperazin-1-yl)-methyl]-quinolin-8-ol], under 50 µM.

Still in this test, the particulars now being: 10 μM substance conc., hepcidin-induced Fpn internalization.
For the compound `Oc1c(C(Nc2ccccn2)c2cccnc2)cc(Cl)c2cccnc12` (stereo not drawn) [Example 6, 5-Chloro-7-[pyridin-3-yl-(pyridin-2-ylamino)-methyl]-quinolin-8-ol], the “I [%] (median inhibition [%] at 10 μM substance conc.)” value is under 50%.
As to `Oc1c(C(c2ccccn2)N2CCOCC2)ccc2cccnc12` (stereo not drawn) [Example 1, 7-(Morpholin-4-yl-pyridin-2-yl-methyl)-quinolin-8-ol], the “I [%] (median inhibition [%] at 10 μM substance conc.)” value is given as over 50%.
Same read-out and setting: under `O=C(Oc1c(CN2CCOCC2)cc(Cl)c2cccnc12)c1ccco1` [Example 3, Furan-2-carboxylic acid 5-chloro-7-morpholin-4-ylmethyl-quinolin-8-yl ester] stands under 50%.
In the case of `COc1cc(C(=O)Oc2c(CN3CCOCC3)cc(Cl)c3cccnc23)cc(OC)c1OC` [Example 4, 3,4,5-Trimethoxy-benzoic acid 5-chloro-7-morpholin-4-ylmethyl-quinolin-8-yl ester], the “I [%] (median inhibition [%] at 10 μM substance conc.)” value is given as under 50%.
As to `O=C(Oc1c(CN2CCOCC2)cc(Cl)c2cccnc12)c1ccccc1` [Example 5, Benzoic acid 5-chloro-7-morpholin-4-ylmethyl-quinolin-8-yl ester], the “I [%] (median inhibition [%] at 10 μM substance conc.)” value was under 50%.
